Experimental data published in US20040224958A1, “Pyridopyrimidinone derivatives for treatment of neurodegenerative disease” (priority 2000, published 2004).

What was measured:
[1] = biological target: cdk4/D (Homo sapiens, UniProt P11802); test: Cyclin-Dependent Kinase 4 (cdk4) Assay; assay type: biochemical; details: read-out: cdk4/D IC50
Method: A typical assay, for instance, measures inhibitory activity against the cyclin D dependent kinase 4 enzyme (cdk4/D). […] The cdk4 assay was carried out as follows.
Cyclin-Dependent Kinase 4 (cdk4) Assay
All components except the ATP were added to the wells, and the plate was placed on a plate mixer for 2 minutes. The reaction was started by adding [^32P]ATP and the plate was incubated at 25° C. for 15 minutes. The reaction was terminated by addition of 0.1 mL of 20% trichloroacetic acid (TCA). The plate was kept at 4° C. for at least 1 hour to allow the substrate to precipitate. The wells were then washed five times with 0.2 mL of 10% TCA and ^32P incorporation was determined with a beta plate counter (Wallac Inc., Gaithersburg, Md.).

[2] = biological target: Cdk5/p25 (Homo sapiens, UniProt Q00535); test: Cyclin-Dependent Kinase 5 High Throughput Screening (cdk5-HTS) Assay; assay type: biochemical; details: high throughput screen
Method: Cyclin-Dependent Kinase 5 High Throughput Screening (cdk5-HTS) Assay
Enzyme assays for IC50 determinations were performed in 96-Pierce Reacti-Bind™ White Opaque Glutatione Coated Plates (Cat. No. 15240B).
The total volume was 0.100 mL containing a final concentration of 50 mM TRIS (tris[hydroxymethyl]aminomethane) at pH 7.4, 50 mM NaCl, 10 mM MgCl2, 5 mM dithiothreitol, 20 μM ATP containing 16 μCi/mL of Redivue[y33P]ATP (Amersham Pharmacia Biotech Cat. No. AH9968), 1.0 μg/mL Cdk5/p25, 20 μg/mL GST-RbCOOH, and appropriate dilutions of a compound of the present invention. The reaction was started by adding[^33P]ATP, and the plate was shaken for 30 seconds, then incubated at room temperature for 30 minutes. The reaction was terminated by addition of 0.05 mL of 120 mM EDTA. The plate was kept at room temperature for 45 minutes to allow substrate to bind to the walls of the plate. The wells were then washed three times with 0.2 mL of 1×PBS. Once thoroughly dry, 0.140 mL of MicroScint™2O (Packard Bioscience Cat. No. 87-9081) cocktail was added to all wells. The incorporation of ^33P was determined with a beta plate counter (Packard Topcount).

[3] = biological target: cdk2/cyclinE (Homo sapiens, UniProt P24941); test: Cyclin-Dependent Kinase Assay cdk2/cyclinE; details: cdk2/E IC50
[4] = biological target: cdc2/cyclinB (Homo sapiens, UniProt P06493); test: Cyclin-Dependent Kinase Assay cdc2/cyclinB
[5] = biological target: cdk2/cyclinA (Homo sapiens, UniProt P24941); test: Cyclin-Dependent Kinase Assay cdk2/cyclinA; details: cdk2/A IC50

cdk4/D, sequence (P11802 whole entry): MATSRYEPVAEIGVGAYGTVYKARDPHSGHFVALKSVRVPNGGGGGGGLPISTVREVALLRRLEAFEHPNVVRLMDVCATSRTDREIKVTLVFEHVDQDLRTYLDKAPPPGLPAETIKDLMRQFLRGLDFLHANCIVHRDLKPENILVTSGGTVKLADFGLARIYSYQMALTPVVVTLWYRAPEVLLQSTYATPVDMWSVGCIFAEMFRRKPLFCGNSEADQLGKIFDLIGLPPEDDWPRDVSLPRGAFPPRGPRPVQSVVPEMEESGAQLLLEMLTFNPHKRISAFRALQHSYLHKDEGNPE
cdk4/D, sequence (P24385 whole entry, further chain): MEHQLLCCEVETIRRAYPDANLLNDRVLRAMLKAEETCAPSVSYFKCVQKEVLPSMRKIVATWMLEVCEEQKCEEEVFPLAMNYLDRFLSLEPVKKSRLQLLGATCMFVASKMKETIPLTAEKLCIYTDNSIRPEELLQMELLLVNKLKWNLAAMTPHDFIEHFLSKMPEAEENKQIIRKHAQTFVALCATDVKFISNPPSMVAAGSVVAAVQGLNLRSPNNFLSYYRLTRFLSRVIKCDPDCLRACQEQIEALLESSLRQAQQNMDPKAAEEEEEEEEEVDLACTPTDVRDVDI
cdc2/cyclinB, sequence (P06493 whole entry): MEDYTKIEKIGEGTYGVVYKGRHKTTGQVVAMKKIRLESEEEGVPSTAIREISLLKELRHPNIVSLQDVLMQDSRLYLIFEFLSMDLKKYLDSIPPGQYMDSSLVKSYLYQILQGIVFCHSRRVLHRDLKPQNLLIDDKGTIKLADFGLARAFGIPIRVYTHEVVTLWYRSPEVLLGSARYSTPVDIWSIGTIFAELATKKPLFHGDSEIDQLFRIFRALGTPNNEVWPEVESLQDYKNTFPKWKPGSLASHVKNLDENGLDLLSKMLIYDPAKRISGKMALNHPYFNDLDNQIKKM
cdc2/cyclinB, sequence (P14635 whole entry, further chain): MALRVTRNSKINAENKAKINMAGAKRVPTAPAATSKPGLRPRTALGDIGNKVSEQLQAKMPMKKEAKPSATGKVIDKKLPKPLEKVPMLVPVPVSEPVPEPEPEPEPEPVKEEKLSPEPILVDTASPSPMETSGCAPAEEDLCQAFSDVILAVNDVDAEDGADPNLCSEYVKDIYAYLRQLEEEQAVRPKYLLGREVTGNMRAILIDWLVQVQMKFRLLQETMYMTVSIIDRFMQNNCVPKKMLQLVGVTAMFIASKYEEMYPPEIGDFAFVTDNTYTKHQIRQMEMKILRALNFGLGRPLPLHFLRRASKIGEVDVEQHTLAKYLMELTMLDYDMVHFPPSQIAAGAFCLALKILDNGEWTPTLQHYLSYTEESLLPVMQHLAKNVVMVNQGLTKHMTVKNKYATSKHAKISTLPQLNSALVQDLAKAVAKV

CCn1c(=O)ccc2cnc(Nc3cc([N+](=O)[O-])ccc3F)nc21 [Example 297, 8-Ethyl-2-(2-fluoro-5-nitro-phenylamino)-8H-pyrido[2,3-d]pyrimidin-7-one]
IC50 [1]: 3300 nM | IC50 [2]: 870 nM | IC50 [3]: 2300 nM | IC50 [4]: 3700 nM

CCn1c(=O)ccc2cnc(Nc3ccc(C#N)c(C#N)c3)nc21 [Example 298, 4-(8-Ethyl-7-oxo-7,8-dihydro-pyrido[2,3-d]pyrimidin-2-ylamino)-phthalonitrile]
IC50 [1]: 2000 nM | IC50 [2]: 430 nM | IC50 [3]: 1400 nM | IC50 [4]: 1900 nM

CCn1c(=O)ccc2cnc(Nc3ccc(C#N)c(NC(C)=O)c3)nc21 [Example 299, N-[2-Cyano-5-(8-ethyl-7-oxo-7,8-dihydro-pyrido[2,3-d]pyrimidin-2-ylamino)-phenyl]-acetamide]
IC50 [1]: 1500 nM | IC50 [2]: 1000 nM | IC50 [3]: 2700 nM | IC50 [4]: 2900 nM

CCCn1c(=O)ccc2cnc(Nc3cc(C(F)(F)F)ccc3F)nc21 [Example 311, 2-(2-Fluoro-5-trifluoromethyl-phenylamino)-8-propyl-8H-pyrido[2,3-d]pyrimidin-7-one]
IC50 [1]: 3000 nM | IC50 [2]: 1160 nM | IC50 [3]: 1460 nM | IC50 [4]: 1760 nM

CCCn1c(=O)ccc2cnc(Nc3cc(C(F)(F)F)cc(C(F)(F)F)c3)nc21 [Example 315, 2-(3,5-Bis-trifluoromethyl-phenylamino)-8-propyl-8H-pyrido[2,3-d]pyrimidin-7-one]
IC50 [2]: 2440 nM | IC50 [3]: 2580 nM | IC50 [4]: 2190 nM

CCCn1c(=O)ccc2cnc(Nc3cc(OC)c(OC)c(OC)c3)nc21 [Example 334, 8-Propyl-2-(3,4,5-trimethoxy-phenylamino)-8H-pyrido[2,3-d]pyrimidin-7-one]
IC50 [2]: 300 nM | IC50 [3]: 910 nM | IC50 [4]: 1300 nM

CCCn1c(=O)ccc2cnc(Nc3cc(OC)cc(C(F)(F)F)c3)nc21 [Example 342, 2-(3-Methoxy-5-trifluoromethyl-phenylamino)-8-propyl-8H-pyrido[2,3-d]pyrimidin-7-one]
IC50 [1]: 2200 nM | IC50 [2]: 1400 nM | IC50 [3]: 370 nM | IC50 [5]: 1800 nM

CCCn1c(=O)ccc2cnc(Nc3ccc(Cl)c(Cl)c3)nc21 [Example 350, 2-(3,4-Dichloro-phenylamino)-8-propyl-8H-pyrido[2,3-d]pyrimidin-7-one]
IC50 [2]: 230 nM | IC50 [3]: 1200 nM | IC50 [4]: 3100 nM

CCCn1c(=O)ccc2cnc(Nc3ccc(OC(F)(F)F)cc3)nc21 [Example 362, 8-Propyl-2-(4-trifluoromethoxy-phenylamino)-8H-pyrido[2,3-d]pyrimidin-7-one]
IC50 [2]: 190 nM | IC50 [5]: 4000 nM | IC50 [4]: 270 nM

CCCCn1c(=O)ccc2cnc(Nc3cc(C(F)(F)F)ccc3F)nc21 [Example 372, 8-Butyl-2-(2-fluoro-5-trifluoromethyl-phenylamino)-8H-pyrido[2,3-d]pyrimidin-7-one]
IC50 [2]: 2270 nM | IC50 [3]: 1030 nM | IC50 [4]: 2400 nM

CCCCn1c(=O)ccc2cnc(Nc3cc(Cl)cc(Cl)c3)nc21 [Example 391, 8-Butyl-2-(3,5-dichloro-phenylamino)-8H-pyrido[2,3-d]pyrimidin-7-one]
IC50 [1]: 515 nM | IC50 [2]: 58 nM | IC50 [3]: 65 nM | IC50 [4]: 165 nM

CC(C)n1c(=O)ccc2cnc(Nc3ccc(F)c(Cl)c3)nc21 [Example 419, 2-(3-Chloro-4-fluoro-phenylamino)-8-isopropyl-8H-pyrido[2,3-d]pyrimidin-7-one]
IC50 [1]: 260 nM | IC50 [2]: 33 nM | IC50 [3]: 120 nM | IC50 [4]: 140 nM

CC(C)n1c(=O)ccc2cnc(Nc3cc([N+](=O)[O-])ccc3F)nc21 [Example 420, 2-(2-Fluoro-5-nitro-phenylamino)-8-isopropyl-8H-pyrido[2,3-d]pyrimidin-7-one]
IC50 [1]: 1000 nM | IC50 [2]: 660 nM | IC50 [3]: 1000 nM | IC50 [4]: 1400 nM

CC(C)n1c(=O)ccc2cnc(Nc3cc(C(F)(F)F)ccc3F)nc21 [Example 428, 2-(2-Fluoro-5-trifluoromethyl-phenylamino)-8-isopropyl-8H-pyrido[2,3-d]pyrimidin-7-one]
IC50 [1]: 2400 nM | IC50 [2]: 890 nM | IC50 [3]: 2400 nM | IC50 [4]: 2600 nM

CC(C)n1c(=O)ccc2cnc(Nc3ccc(O)c(CN4CCOCC4)c3)nc21 [Example 436, 2-(4-Hydroxy-3-morpholin-4-ylmethyl-phenylamino)-8-isopropyl-8H-pyrido[2,3-d]pyrimidin-7-one]
IC50 [1]: 1800 nM | IC50 [2]: 970 nM | IC50 [3]: 340 nM | IC50 [5]: 730 nM

Cc1ccc(Nc2ncc3ccc(=O)n(C(C)C)c3n2)cc1NS(C)(=O)=O [Example 439, N-[5-(8-Isopropyl-7-oxo-7,8-dihydro-pyrido[2,3-d]pyrimidin-2-ylamino)-2-methyl-phenyl]-methanesulfonamide]
IC50 [1]: 310 nM | IC50 [2]: 120 nM | IC50 [5]: 630 nM | IC50 [4]: 400 nM

CCC(C)n1c(=O)ccc2cnc(Nc3cc(C(F)(F)F)ccc3F)nc21 (stereo not drawn) [Example 466, 8-sec-Butyl-2-(2-fluoro-5-trifluoromethyl-phenylamino)-8H-pyrido[2,3-d]pyrimidin-7-one]
IC50 [1]: 1500 nM | IC50 [2]: 310 nM | IC50 [3]: 1400 nM | IC50 [4]: 1300 nM

CCC(CC)n1c(=O)ccc2cnc(Nc3ccc(F)c(C)c3)nc21 [Example 503, 8-(1-Ethyl-propyl)-2-(4-fluoro-3-methyl-phenylamino)-8H-pyrido[2,3-d]pyrimidin-7-one]
IC50 [1]: 170 nM | IC50 [2]: 13 nM | IC50 [3]: 36 nM | IC50 [4]: 79 nM

CCC(CC)n1c(=O)ccc2cnc(Nc3cc([N+](=O)[O-])ccc3F)nc21 [Example 504, 8-(1-Ethyl-propyl)-2-(2-fluoro-5-nitro-phenylamino)-8H-pyrido[2,3-d]pyrimidin-7-one]
IC50 [1]: 210 nM | IC50 [2]: 370 nM | IC50 [3]: 380 nM | IC50 [4]: 520 nM

CCC(CC)n1c(=O)ccc2cnc(Nc3cc(F)c(NC(C)=O)c(Cl)c3)nc21 [Example 514, N-{2-Chloro4-[8-(1-ethyl-propyl)-7-oxo-7,8-dihydro-pyrido[2,3-d]pyrimidin-2-ylamino]-6-fluoro-phenyl}-acetamide]
IC50 [1]: 250 nM | IC50 [2]: 1100 nM | IC50 [3]: 3100 nM | IC50 [4]: 2000 nM

O=c1ccc2cnc(Nc3ccc(F)c(C(F)(F)F)c3)nc2n1C1CCCC1 [Example 534, 8-Cyclopentyl-2-(4-fluoro-3-trifluoromethyl-phenylamino)-8H-pyrido[2,3-d]pyrimidin-7-one]
IC50 [1]: 340 nM | IC50 [2]: 45 nM | IC50 [5]: 340 nM | IC50 [4]: 190 nM

Nc1c(Cl)cc(Nc2ncc3ccc(=O)n(C4CCCC4)c3n2)cc1Cl [Example 557, 2-(4-Amino-3,5-dichloro-phenylamino)-8-cyclopentyl-8H-pyrido[2,3-d]pyrimidin-7-one]
IC50 [1]: 120 nM | IC50 [2]: 96 nM | IC50 [5]: 130 nM | IC50 [4]: 73 nM

O=c1ccc2cnc(Nc3ccc(OC(F)(F)F)cc3)nc2n1CC1CC1 [Example 591, 8-Cyclopropylmethyl-2-(4-trifluoromethoxy-phenylamino)-8H-pyrido[2,3-d]pyrimidin-7-one]
IC50 [1]: 210 nM | IC50 [2]: 140 nM | IC50 [3]: 1800 nM | IC50 [4]: 3900 nM

O=c1ccc2cnc(Nc3ccc4[nH]ncc4c3)nc2n1CC(F)(F)F [Example 594, 2-(1H-Indazol-5-ylamino)-8-(2,2,2-trifluoro-ethyl)-8H-pyrido[2,3-d]pyrimidin-7-one]
IC50 [2]: 555 nM | IC50 [3]: 1670 nM | IC50 [4]: 1900 nM

O=c1ccc2cnc(Nc3ccc(O)cc3F)nc2n1CC(F)(F)F [Example 596, 2-(2-Fluoro-4-hydroxy-phenylamino)-8-(2,2,2-trifluoro-ethyl)-8H-pyrido[2,3-d]pyrimidin-7-one]
IC50 [2]: 720 nM | IC50 [3]: 1300 nM | IC50 [4]: 1860 nM

O=c1ccc2cnc(Nc3cccc([N+](=O)[O-])c3)nc2n1CC(F)(F)F [Example 599, 2-(3-Nitro-phenylamino)-8-(2,2,2-trifluoro-ethyl)-8H-pyrido[2,3-d]pyrimidin-7-one]
IC50 [2]: 785 nM | IC50 [3]: 1700 nM | IC50 [4]: 2350 nM

COc1ccc(Nc2ncc3ccc(=O)n(C)c3n2)cc1OC [Example 617, 2-(3,4-Dimethoxy-phenylamino)-8-methyl-8H-pyrido[2,3-d]pyrimidin-7-one]
IC50 [2]: 595 nM | IC50 [3]: 2900 nM | IC50 [4]: 1700 nM
